Reference: US20060063187A1, “Modulation of XBP-1 activity for treatment of metabolic disorders” (priority 2004, published 2006)

What was measured:
Fao liver cells = assay: ER stress and insulin receptor signaling in Fao liver cells (immunoprecipitation / immunoblotting); format: cell-based, rat; conditions: for serine (Ser307) phosphorylation of IRS-1: Fao cells treated with ER stress inducer (tunicamycin 5 μg/ml 3 h; thapsigargin 300 nM)
Protocol: (§1) FIG. 2 depicts that the induction of ER stress impairs insulin action through JNK mediated phosphorylation of IRS-1. (A) ER stress was induced in Fao liver cells by a 3-hour treatment with 5 μg/ml tunicamycin (Tun). Cells were subsequently stimulated with insulin (Ins). IRS-1 tyrosine and serine (Ser307) phosphorylation, Akt phosphorylation (Ser473), insulin receptor (IR) tyrosine phosphorylation, and their total protein levels were examined using either immunoprecipitation (IP) followed by immunoblotting (IB) or direct immunoblotting. (B) Quantitation of IRS-1 (tyrosine and Ser307), Akt (Ser473), and IR (tyrosine) phosphorylation under the experimental conditions described in (A) with normalization to protein levels for each molecule. (C) Inhibition of ER stress-induced (300 nM thapsigargin for 4 hours) Ser307 phosphorylation of IRS-1 by JNK-1 inhibitor, SP600125 (JNKi, 25 μM). (D) Quantitation of IRS-1 Ser307 phosphorylation under conditions described in (C). (E) Reversal of ER stress-induced inhibition of insulin-stimulated tyrosine phosphorylation (pY) of IRS-1 by a JNK inhibitor. (F) Quantitation of insulin-induced IRS-1 tyrosine phosphorylation levels described in (E). (G) JNK activity, Ser307 phosphorylation of IRS-1, and total IRS-1 levels at indicated times following tunicamycin treatment (Tun, 10 μg/ml for I hour) in IRE-1α^+/+ and IRE-1α^−/− fibroblasts. (H) Insulin-stimulated IRS-1 tyrosine phosphorylation and total IRS-1 levels following tunicamycin treatment (Tun, 10 μg/ml for 1 hour) in IRE-1α^+/+ and IRE-1α^−/− fibroblasts. […] All graphs show mean ±SEM from at least 2 independent experiments and statistical significance from the controls is indicated by * with p<0.005.
FIG. 8 depicts inhibition of insulin receptor signaling by thapsigargin-induced ER stress and the role of Ca^+2 levels in IRS-1 serine phosphorylation. (A) ER stress was induced in Fao cells by 1 hour treatment with 300 nM thapsigargin (Thap), and cells were subsequently stimulated with insulin (Ins). IRS-1 tyrosine phosphorylation (pY) and serine phosphorylation (pSer307), insulin receptor (IR) tyrosine phosphorylation, and total protein levels were examined using either immunoprecipitation (UP) followed by immunoblotting (IB) or direct immunobloting. (B) Fao cells were treated with sulindac sulfide (SS: 0, 7.5, 30, and 60 μM) for 45 minutes with or without an additional hour of exposure to 300 nM thapsigargin (Thap). IRS-1 serine phosphorylation and total IRS-1 protein levels were examined as described above.
Cells: FaO cells were cultured with RPMI 1640 (Gibco) containing 10% fetal bovine serum (FBS). At 70-80% confluency, cells were serum depleted for 12 hours before starting the experiments. Reagents including tunicamycin, thapsigargin, and JNK inhibitors were gently added to the culture dishes in the incubator to prevent any environmental stress. JNK inhibitors were added 1 hour before tunicamycine/thapsigargin treatment. The XBP-1^−/− MEF cells, IRE-1α^−/− MEF cells (provided by Dr. David Ron (New York University School of Medicine) and their wild type (WT) controls were cultured in Dulbecco's Modified Eagle Medium (DMEM) (Gibco) containing 10% FBS. Experiments in MEF cells were carried out similar to those in FaO cells except after 6 hours of serum depletion.
(§2) Protein Extracts From Cells: At the end of each treatment, cells were immediately frozen in liquid nitrogen and kept at −80° C. Protein extracts were prepared with a lysis buffer, containing 25 mM Tris-HCl (pH7.4), 2 mM Na3VO4, 10 mM NaF, 10 mM Na4P2O7, 1 mM EGTA, 1 mM EDTA, 1% NP40, 5 μg/ml leupeptin, 5 μg/ml aprotinin, 10 nM okadaic acid, and 1 mM PMSF. Immunoprecipitations and immunoblotting experiments were performed with 750 pg and 75 ug total protein, respectively.

[1] = test system: IRE-1α+/+ (WT) fibroblasts; assay: ER stress-induced JNK activation and IRS-1 phosphorylation in wild type fibroblasts; format: cell-based, mouse; conditions: tunicamycin 10 μg/ml for 1 hour
Protocol: as §1
Cells: FaO cells were cultured with RPMI 1640 (Gibco) containing 10% fetal bovine serum (FBS). At 70-80% confluency, cells were serum depleted for 12 hours before starting the experiments. Reagents including tunicamycin, thapsigargin, and JNK inhibitors were gently added to the culture dishes in the incubator to prevent any environmental stress. […]

IRE-1α−/− fibroblasts = assay: ER stress-induced JNK activation and IRS-1 phosphorylation in IRE-1α-deficient fibroblasts; format: cell-based, mouse; conditions: tunicamycin 10 μg/ml for 1 hour
Protocol: FIG. 2 depicts that the induction of ER stress impairs insulin action through JNK mediated phosphorylation of IRS-1. (A) ER stress was induced in Fao liver cells by a 3-hour treatment with 5 μg/ml tunicamycin (Tun). Cells were subsequently stimulated with insulin (Ins). IRS-1 tyrosine and serine (Ser307) phosphorylation, Akt phosphorylation (Ser473), insulin receptor (IR) tyrosine phosphorylation, and their total protein levels were examined using either immunoprecipitation (IP) followed by immunoblotting (IB) or direct immunoblotting. (B) Quantitation of IRS-1 (tyrosine and Ser307), Akt (Ser473), and IR (tyrosine) phosphorylation under the experimental conditions described in (A) with normalization to protein levels for each molecule. (C) Inhibition of ER stress-induced (300 nM thapsigargin for 4 hours) Ser307 phosphorylation of IRS-1 by JNK-1 inhibitor, SP600125 (JNKi, 25 μM). (D) Quantitation of IRS-1 Ser307 phosphorylation under conditions described in (C). (E) Reversal of ER stress-induced inhibition of insulin-stimulated tyrosine phosphorylation (pY) of IRS-1 by a JNK inhibitor. (F) Quantitation of insulin-induced IRS-1 tyrosine phosphorylation levels described in (E). (G) JNK activity, Ser307 phosphorylation of IRS-1, and total IRS-1 levels at indicated times following tunicamycin treatment (Tun, 10 μg/ml for I hour) in IRE-1α^+/+ and IRE-1α^−/− fibroblasts. […]

[2] = test system: mouse embryonic fibroblasts (MEF) without exogenous XBP-1s expression; assay: ER stress response in MEF-tet-off fibroblasts without exogenous XBP-1s expression; format: cell-based; conditions: tunicamycin 2 μg/ml, fibroblasts without exogenous XBP-1s (+Dox)
Text: FIG. 3 depicts that alteration of the ER stress response by manipulation of XBP-1 levels leads to alterations in insulin receptor signaling. ER stress responses in XBP-1s overexpressing cells, XBP-1^−/− cells, and their controls. (A) Induction of XBP-1s expression upon removal of doxycycline in mouse embryonic fibroblasts (MEF). (B) Southern blot analysis of XBP-1^−/− MEF cells and their WT controls for the wild type (9.4 kb) and targeted (6.5 kb) alleles. (C) PERK phosphorylation (p-PERK) and JNK activity in the XBP-1s overexpressing cells and their control cells (−Dox and +Dox, respectively) upon tunicamycin treatment (Tun, 2 μg/ml). (D) PERK phosphorylation and JNK activity upon low dose tunicamycin treatment (Tun, 0.5 μg/ml) in XBP-1^−/−-MEF cells and their WT controls. (E) IRS-1 Ser307 phosphorylation upon tunicamycin treatment (Tun, 2 μg/ml) in the XBP-1s overexpressingcells and the control cells (−Dox and +Dox, respectively), detected using immunoprecipitation (IP) of IRS-1 followed by immunoblotting (IB) with an IRS-1 phosphoserine 307-specific antibody. […] The ratio of IRS-1 tyrosine phosphorylation to total IRS-1 level was summarized from independent experiments and was presented in the graph. (G) IRS-1 Ser307 phosphorylation upon tunicamycin treatment (Tun, 0.5 μg/ml) in XBP-1^−/− cells and WT controls was detected as described in panel C. […] The ratio of IRS-1 tyrosine phosphorylation to total IRS-1 level was summarized from independent experiments and presented in the graph. All graphs show mean±SEM from at least 2 independent experiments and statistically significance from the controls is indicated by * with p<0.005.
Overexpression of XBPIs in MEFs: MEF-tet-off cells (Clontech) were cultured in DMEM with 100 μg/ml G418 and 1 μg/ml doxycycline. The MEF-tet-off cells express exogenous tTA (tetracycline-controlled transactivator) protein, which binds to TRE (tetracycline response element) and activates transcription only in the absence of tetracycline or doxycycline. The cDNA of the spliced form of XBP-1 was ligated into pTRE2hyg2 plasmid (Clontech). The MEF-tet-off cells were transfected with the TRE2hyg2-XBP-1s plasmid, followed by selection in the presence of […] hygromycine B. Individual clones of stable transfectants were isolated and doxycycline-dependent XBP-1s expression was confirmed by immunoblotting.
as §2, with “Immunoprecipitations and immunoblotting experiments were performed with 750 pg and 75 ug total protein, respectively.” left out

WT MEF cells = assay: ER stress response to low dose tunicamycin in WT MEF cells; format: cell-based, mouse; conditions: low dose of tunicamycin 0.5 μg/ml
Text: (§3) FIG. 3 depicts that alteration of the ER stress response by manipulation of XBP-1 levels leads to alterations in insulin receptor signaling. ER stress responses in XBP-1s overexpressing cells, XBP-1^−/− cells, and their controls. (A) Induction of XBP-1s expression upon removal of doxycycline in mouse embryonic fibroblasts (MEF). (B) Southern blot analysis of XBP-1^−/− MEF cells and their WT controls for the wild type (9.4 kb) and targeted (6.5 kb) alleles. (C) PERK phosphorylation (p-PERK) and JNK activity in the XBP-1s overexpressing cells and their control cells (−Dox and +Dox, respectively) upon tunicamycin treatment (Tun, 2 μg/ml). (D) PERK phosphorylation and JNK activity upon low dose tunicamycin treatment (Tun, 0.5 μg/ml) in XBP-1^−/−-MEF cells and their WT controls. (E) IRS-1 Ser307 phosphorylation upon tunicamycin treatment (Tun, 2 μg/ml) in the XBP-1s overexpressingcells and the control cells (−Dox and +Dox, respectively), detected using immunoprecipitation (IP) of IRS-1 followed by immunoblotting (IB) with an IRS-1 phosphoserine 307-specific antibody. […] The ratio of IRS-1 tyrosine phosphorylation to total IRS-1 level was summarized from independent experiments and was presented in the graph. (G) IRS-1 Ser307 phosphorylation upon tunicamycin treatment (Tun, 0.5 μg/ml) in XBP-1^−/− cells and WT controls was detected as described in panel C. […]

XBP-1−/− MEF cells = assay: ER stress response to low dose tunicamycin in XBP-1−/− MEF cells; format: cell-based, mouse
Text: as §3

Compound	thapsigargin-induced IRS-1 serine phosphorylation (Fao liver cells; sulindac sulfide 45 minutes, then additional hour of 300 nM thapsigargin)	Ser307 phosphorylation of IRS-1 (Fao liver cells; sulindac sulfide alone (0, 7.5, 30, 60 μM, 45 minutes))	serine (Ser307) phosphorylation of IRS-1 (Fao liver cells)	insulin receptor signaling (Fao liver cells; Fao cells, thapsigargin 300 nM 1 h, then insulin)	insulin-stimulated tyrosine phosphorylation of IRS-1 (Fao liver cells; Fao cells pretreated with ER stress inducer (tunicamycin 5 μg/ml 3 h; thapsigargin 300 nM 1 h), then insulin)	insulin-induced Akt phosphorylation (Ser473) (Fao liver cells; Fao cells, tunicamycin pretreatment 5 μg/ml 3 h, then insulin)	insulin-stimulated tyrosine phosphorylation of IRS-1 ([1]; WT cells, then insulin)	JNK activation ([1]; WT fibroblasts)	phosphorylation of IRS-1 at Ser307 ([1]; WT fibroblasts)	insulin-stimulated tyrosine phosphorylation of IRS-1 (IRE-1α−/− fibroblasts; IRE-1α−/− cells, then insulin)	phosphorylation of IRS-1 at Ser307 (IRE-1α−/− fibroblasts; IRE-1α−/− fibroblasts)	JNK activation [2]	PERK phosphorylation [2]	peak of PERK phosphorylation [2] [h]	start of PERK phosphorylation [2] [min]	ER stress (PERK phosphorylation, JNK activation) (WT MEF cells)	ER stress response (PERK phosphorylation, JNK activation) (XBP-1−/− MEF cells; low dose of tunicamycin 0.5 μg/ml, XBP-1−/− MEFs)	IRS-1 serine (Ser307) phosphorylation (XBP-1−/− MEF cells; tunicamycin 0.5 μg/ml, XBP-1−/− MEFs compared with XBP-1+/+ controls)
CSc1ccc(/C=C2/C(C)=C(CC(=O)O)c3cc(F)ccc32)cc1 [sulindac sulfide]	did not interfere	no effect																
C/C=C(/C)C(=O)O[C@H]1C(C)=C2[C@H]([C@@H]1OC(=O)CCCCCCC)[C@@](C)(OC(C)=O)C[C@H](OC(=O)CCC)[C@@]1(O)[C@H]2OC(=O)[C@@]1(C)O [thapsigargin]			increased	suppressed														
tunicamycin			significant increase		significantly decreased	suppressed	inhibited	strong activation	stimulated	no such effect was detected	not	rapid and robust activation	strong	3 to 4	30	failed to stimulate significant ER stress	strong ER stress response	strongly induced
